The record followed here is patent publication US20040043084A1, “Method of enhancing biological activity of plant extracts” (priority 2002, published 2004).

The test system of one test is skin. The experiment in a line: Skin exfoliation via D-Squame discs and image analysis. The format is in vivo, human. The note with it: tested previously in a base, activity over the placebo, 1.0% active in formula. From the text:
The subjects included in this study were 120 females between the ages of 21 and 65 years, all meeting the screening criteria of good health and not being pregnant or lactating. The subjects reported for testing without moisturizers or any other products on their hands and baseline measurements were taken. They were randomly assigned to one of the following eight treatment groups. They were given the product to take home and self-administer to their right hand only, twice a day in the morning after washing and in the evening at least 15 minutes before bedtime for four weeks. The left hand served as the untreated control site. The subjects were only allowed to use the test product and specifically log its use in a daily diary provided. At the end of two and four weeks the subjects returned for testing without applying the product for at least 12 hours and they were re-evaluated under the same conditions. Skin Exfoliation via D-Squame Discs Method and Image Analysis Four D-Squame discs were firmly and evenly pressed on the face and the back of each hand with a hand held uniform pressure device and removed by gently pulling away from the skin. The D-Squame discs were mounted on clear microscope slides and labeled according to panelist name and visit. Desquamation was evaluated from the D-Squame discs via the image analyzer. Skin evaluation was carried out before treatment, and after two and four weeks of treatment. The OPTIMA image analyzer was used to evaluate skin flakiness. The D-Squame samples containing the stratum corneocytes are placed under a camera on top of a light table and each image is imported into the image analyzer. The average Gray Value corresponding to the sample density is measured. The denser the sample the higher the Gray value difference. Skin exfoliation was evaluated by measuring the amount of flakes removed from the skin surface using D-Squame discs and analyzing them via the IA method. In this study several ferment combinations of N-Acetyl D-Glucosamine and Mannose 6-Phosphate vs. the placebo, the broth and the ferment as controls, for their effect on skin desquamation. […] Another series of tests were conducted as described above. The concentration of N-acetyl D-glucosamine and mannose 6-phosphate was reduced by 10 fold without compromising their activity. Table 4 below summarizes the actual active concentrations used with a brief description along with their activity.

The subject of test [1] is UV induced peroxidation of lipids. The experiment in a line: inhibition of UV induced peroxidation of lipids (liposomal assay, Pelle et al.). It counts as biochemical. An excerpt: Caffeine was subjected to bioconversion at concentration as indicated(w/v) in water or in a mixture of structured waters (I/S 60/40).
P. ulei is an equatorial plant known to have anti-inflammatory properties. A. purchyriminor is an equatorial plant containing inhibitors of PAF (Platelet Activating Factor). […] The untreated extracts at a concentration 1% each, are combined and diluted to 0.1% each and subjected to bioconversion.

As to `CC(=O)N[C@H]1C(O)O[C@H](CO)[C@@H](O)[C@@H]1O` (stereo partly shown) [1% N-Acetyl Glucosamine, N-Acetyl Glucosamine], in the test on skin, the “Decrease in Flakiness 2 wk” value was 16% and the “Decrease in Flakiness 4 wk” value worked out at 27%.

As to `Cn1c(=O)c2c(ncn2C)n(C)c1=O` [Caffeine Non bioconverted I/S water, Caffeine], the “Inhibition of lipid peroxidation” value in test [1] (Caffeine Concentration 0.05%) turned out to be 24%; in test [1] (Caffeine Concentration 0.25%), 58%; in test [1] (Caffeine Concentration 0.5%), 66%.

In the case of `Oc1ccc(C=Cc2cc(O)cc(O)c2)cc1` [Resveratrol Nonbioconverted, Resveratrol], the Anti-oxidant activity is 1.8% in test [1] (Concentration of Resveratrol in S water 0.05%), 8% in test [1] (Concentration of Resveratrol in S water 0.25%) and 39% in test [1] (Concentration of Resveratrol in S water 0.5%).

As for `O=C[C@@H](O)[C@@H](O)[C@H](O)[C@H](O)COP(=O)(O)O` [1% Mannose 6-Phosphate, Mannose 6-Phosphate], in the test with skin, the “Decrease in Flakiness 2 wk” value was 22% and the “Decrease in Flakiness 4 wk” value was 29%.

As for `Cn1c(=O)c2c(ncn2C)n(C)c1=O` [Caffeine Non bioconverted H2O, Caffeine], the figures for the “Inhibition of lipid peroxidation” value in test [1] (Caffeine Concentration 0.05%), in test [1] (Caffeine Concentration 0.25%) and in test [1] (Caffeine Concentration 0.5%) were 30%, 54% and 66%, respectively.
